Non-standard residues stand in square brackets, D forms with d. Residues, ends and D or L forms follow the SMILES beside them. *: point of attachment. Hexenoyl(2E,4S-Me) = CC[C@H](C)/C=C/C(=O)*; Leu(3R-OH) = CC(C)[C@@H](O)[C@H](N)C(=O)O; NH((S)CH(Me)CH2NMe2) = C[C@@H](CN(C)C)N*; NH(1-CH2NMe2-cBu) = CN(C)CC1(N*)CCC1; Gly(octyl) = CCCCCCCC[C@H](N)C(=O)O; Oxazole4CO(2-Me) = Cc1nc(C(=O)*)co1; X17 = C[C@@H](CN1CCOCC1)N*; Hexanoyl = CCCCCC(=O)*; X18 = CN1CCN(CCN*)CC1; Aib = CC(C)(N)C(=O)O; βAla = NCCC(=O)O
Key:
[1] = tested on: Axenically grown Leishmania donovani amastigotes (strain MHOM/ET/67/L82); assay: Axenic Leishmania donovani amastigote resazurin assay; type: cell-based; conditions: In vitro inhibition, read-out: L.don. ax
Method in brief: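 IC50 values derive from resazurin fluorescence (ex 536 nm, em 588 nm), expressed relative to the negative control, after 2-4 hours of plate development. Axenic amastigotes of strain MHOM/ET/67/L82 were used; each test run in triplicate.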

[2] = tested on: Trypanosoma brucei rhodesiense (STIB 900 strain); assay: Alamar Blue assay against Trypanosoma brucei rhodesiense grown in axenic medium; type: cell-based; conditions: In vitro inhibition, read-out: T.b.rhod.
Method in brief: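 Alamar Blue-based IC50 determination, in triplicate, on axenically grown STIB 900 trypanosomes. Melarsoprol included as reference.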

[3] = tested on: Trypanosoma cruzi trypomastigote forms (Tulahuen strain); assay: Intracellular Trypanosoma cruzi assay in L6-cells, beta-galactosidase/CPRG readout; type: cell-based; conditions: In vitro inhibition, read-out: T.cruzi.
Method in brief: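 Readout was β-galactosidase cleavage of CPRG, read photometrically at 540 nm after 2–6 h colour development, giving IC50 values. Parasites: LacZ-expressing Tulahuen C2C4 strain grown in rat L6 myoblasts; run in triplicate.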

[4] = Cytotoxicity assay on L6-cells (Alamar Blue); conditions: rat, Cytotox L6, Cytotoxicity against rat myoblast cells (L6)
Procedure: Tests were done in triplicate. IC50 values against the parasites as well as cytotoxic effects against rat myoblast (L6-cells) were determined by serial dilution and repeated twice.
After 68 h of incubation under humidified 5% CO2 atmosphere, 10 µl of the Alamar blue marker was added to all wells. The plates were incubated for an additional 2 h. […] The IC50S were calculated by Softmax Pro software (Molecular Devices Cooperation, Sunnyvale, CA). […] Cytotoxicity was measured against rat myoblast cells (Cytotox L6).

Plasmodium falciparum = assay: 3H-hypoxanthine incorporation assay against Plasmodium falciparum; type: cell-based; conditions: In vitro inhibition, read-out: P.falc NF5
Procedure: Tests were done in triplicate.
IC50 values were calculated by linear interpolation.

CCCCCCCC[C@H](NC(=O)[C@@H]1CCCN1C(=O)c1coc(C)n1)C(=O)N[C@@H](CC(C)C)C(=O)NC(C)(C)C(=O)NC(C)(C)C(=O)N[C@@H](CC(C)C)C(=O)N[C@@H](CC(C)C)C(=O)NC(C)(C)C(=O)NC(C)(C)C(=O)NCCC(=O)NC1(CN(C)C)CCC1 [Compound 6330, (2S)-N-[(1S)-1-({1-[(1-{[(1S)-1-{[(1S)-1-({1-[(1-{[2-({1-[(dimethylamino)methyl]cyclobutyl}carbamoyl)ethyl]carbamoyl}-1-methylethyl)carbamoyl]-1-methylethyl}carbamoyl)-3-methylbutyl]carbamoyl}-3-methylbutyl]carbamoyl}-1-methylethyl)carbamoyl]-1-methylethyl}carbamoyl)-3-methylbutyl]-2-{[(2S)-1-(2-methyl-1,3-oxazole-4-carbonyl)pyrrolidin-2-yl]formamido}decanamide] ({Oxazole4CO(2-Me)}-P[Gly(octyl)]L[Aib][Aib]LL[Aib][Aib][βAla]-{NH(1-CH2NMe2-cBu)})
IC50 [1]: 0.72 nM | IC50 [2]: 0.2 nM | IC50 [3]: 36.3 nM | IC50 at 70 h [4]: 1200 nM | IC50 (Plasmodium falciparum): 0.24 nM

CCCCCCCC[C@H](NC(=O)[C@H](C)NC(=O)CCCCC)C(=O)N[C@H](C(=O)NC(C)(C)C(=O)N[C@@H](CC(C)C)C(=O)N[C@@H](CC(C)C)C(=O)NC(C)(C)C(=O)NC(C)(C)C(=O)NCCC(=O)N[C@@H](C)CN(C)C)[C@@H](C)O [Compound 5605, (2S)-N-[(1S,2R)-1-[(1-{[(1S)-1-{[(1S)-1-{[1-({1-[(2-{[(2S)-1-(dimethylamino)propan-2-yl]carbamoyl}ethyl)carbamoyl]-1-methylethyl}carbamoyl)-1-methylethyl]carbamoyl}-3-methylbutyl]carbamoyl}-3-methylbutyl]carbamoyl}-1-methylethyl)carbamoyl]-2-hydroxypropyl]-2-[(2S)-2-hexanamidopropanamido]decanamide] (Hexanoyl-A[Gly(octyl)]T[Aib]LL[Aib][Aib][βAla]-{NH((S)CH(Me)CH2NMe2)})
IC50 [1]: 78.6 nM | IC50 [2]: 22.8 nM | IC50 [3]: 1840 nM | IC50 at 70 h [4]: 2480 nM | IC50 (Plasmodium falciparum): 39.3 nM

CCCCCCCC[C@H](NC(=O)[C@@H]1CCCN1C(=O)CCCCC)C(=O)N[C@@H](CC(C)C)C(=O)NC(C)(C)C(=O)N[C@@H](CC(C)C)C(=O)N[C@@H](CC(C)C)C(=O)NC(C)(C)C(=O)NC(C)(C)C(=O)NCCC(=O)N[C@@H](C)CN1CCOCC1 [Compound 5981, (2S)-2-{[(2S)-1-hexanoylpyrrolidin-2-yl]formamido}-N-[(1S)-3-methyl-1-[(1-methyl-1-{[(1S)-3-methyl-1-{[(1S)-3-methyl-1-{[1-methyl-1-({1-methyl-1-[(2-{[(2S)-1-(morpholin-4-yl)propan-2-yl]carbamoyl}ethyl)carbamoyl]ethyl}carbamoyl)ethyl]carbamoyl}butyl]carbamoyl}butyl]carbamoyl}ethyl)carbamoyl]butyl]decanamide] (Hexanoyl-P[Gly(octyl)]L[Aib]LL[Aib][Aib][βAla]-X17)
IC50 [1]: 0.2 nM | IC50 [2]: 17.9 nM | IC50 [3]: 723 nM | IC50 at 70 h [4]: 1080 nM | IC50 (Plasmodium falciparum): 35800 nM

CCCCCCCC[C@H](NC(=O)[C@@H]1CCCN1C(=O)CCCCC)C(=O)N[C@H](C(=O)N[C@@H](CC(C)C)C(=O)N[C@@H](CC(C)C)C(=O)NC(C)(C)C(=O)NCCC(=O)N[C@@H](C)CN(C)C)[C@@H](C)O [Compound 5599, (2S)-N-[(1S,2R)-1-{[(1S)-1-{[(1S)-1-({1-[(2-{[(2S)-1-(dimethylamino)propan-2-yl]carbamoyl}ethyl)carbamoyl]-1-methylethyl}carbamoyl)-3-methylbutyl]carbamoyl}-3-methylbutyl]carbamoyl}-2-hydroxypropyl]-2-{[(2S)-1-hexanoylpyrrolidin-2-yl]formamido}decanamide] (Hexanoyl-P[Gly(octyl)]TLL[Aib][βAla]-{NH((S)CH(Me)CH2NMe2)})
IC50 [1]: 4810 nM | IC50 [2]: 1940 nM | IC50 [3]: 8360 nM | IC50 at 70 h [4]: 6950 nM | IC50 (Plasmodium falciparum): 3500 nM

CCCCCCCC[C@H](NC(=O)[C@@H]1CCCN1C(=O)CCCCC)C(=O)N[C@@H](CC(C)C)C(=O)NC(C)(C)C(=O)N[C@@H](CC(C)C)C(=O)N[C@@H](CC(C)C)C(=O)NC(C)(C)C(=O)NC(C)(C)C(=O)NCCC(=O)NC1(CN(C)C)CCC1 [Compound 5882, (2S)-N-[(1S)-1-[(1-{[(1S)-1-{[(1S)-1-({1-[(1-{[2-({1-[(dimethylamino)methyl]cyclobutyl}carbamoyl)ethyl]carbamoyl}-1-methylethyl)carbamoyl]-1-methylethyl}carbamoyl)-3-methylbutyl]carbamoyl}-3-methylbutyl]carbamoyl}-1-methylethyl)carbamoyl]-3-methylbutyl]-2-{[(2S)-1-hexanoylpyrrolidin-2-yl]formamido}decanamide] (Hexanoyl-P[Gly(octyl)]L[Aib]LL[Aib][Aib][βAla]-{NH(1-CH2NMe2-cBu)})
IC50 [1]: 46800 nM | IC50 [2]: 20500 nM | IC50 [3]: 42600 nM | IC50 at 70 h [4]: 44.1 nM | IC50 (Plasmodium falciparum): 0.9 nM

CCCCCCCC[C@H](NC(=O)[C@H](C)NC(=O)/C=C/[C@@H](C)CC)C(=O)N[C@H](C(=O)NC(C)(C)C(=O)N[C@@H](CC(C)C)C(=O)N[C@@H](CC(C)C)C(=O)NC(C)(C)C(=O)NC(C)(C)C(=O)NCCC(=O)N[C@@H](C)CN(C)C)[C@H](O)C(C)C [Compound 5527, (2S)-N-[(1S,2R)-1-[(1-{[(1S)-1-{[(1S)-1-{[1-({1-[(2-{[(2S)-1-(dimethylamino)propan-2-yl]carbamoyl}ethyl)carbamoyl]-1-methylethyl}carbamoyl)-1-methylethyl]carbamoyl}-3-methylbutyl]carbamoyl}-3-methylbutyl]carbamoyl}-1-methylethyl)carbamoyl]-2-hydroxy-3-methylbutyl]-2-[(2S)-2-[(2E,4S)-4-methylhex-2-enamido]propanamido]decanamide] ({Hexenoyl(2E,4S-Me)}-A[Gly(octyl)][Leu(3R-OH)][Aib]LL[Aib][Aib][βAla]-{NH((S)CH(Me)CH2NMe2)})
IC50 [1]: 1.1 nM | IC50 [2]: 1.8 nM | IC50 [3]: 67.9 nM | IC50 at 70 h [4]: 274 nM | IC50 (Plasmodium falciparum): 8.4 nM

CCCCCCCC[C@H](NC(=O)[C@@H]1CCCN1C(=O)CCCCC)C(=O)N[C@@H](CC(C)C)C(=O)NC(C)(C)C(=O)N[C@@H](CC(C)C)C(=O)N[C@@H](CC(C)C)C(=O)NC(C)(C)C(=O)NC(C)(C)C(=O)NCCC(=O)NCCN1CCN(C)CC1 [Compound 5884, (2S)-2-{[(2S)-1-hexanoylpyrrolidin-2-yl]formamido}-N-[(1S)-3-methyl-1-[(1-methyl-1-{[(1S)-3-methyl-1-{[(1S)-3-methyl-1-{[1-methyl-1-({1-methyl-1-[(2-{[2-(4-methylpiperazin-1-yl)ethyl]carbamoyl}ethyl)carbamoyl]ethyl}carbamoyl)ethyl]carbamoyl}butyl]carbamoyl}butyl]carbamoyl}ethyl)carbamoyl]butyl]decanamide] (Hexanoyl-P[Gly(octyl)]L[Aib]LL[Aib][Aib][βAla]-X18)
IC50 [1]: 19400 nM | IC50 [2]: 0.6 nM | IC50 [3]: 42500 nM | IC50 at 70 h [4]: 128 nM | IC50 (Plasmodium falciparum): 15000 nM

CCCCCC(=O)N1CCC[C@H]1C(=O)N[C@@H](CCCCNC(C)=O)C(=O)N[C@@H](CC(C)C)C(=O)NC(C)(C)C(=O)N[C@@H](CC(C)C)C(=O)N[C@@H](CC(C)C)C(=O)NC(C)(C)C(=O)NC(C)(C)C(=O)NCCC(=O)N[C@@H](C)CN(C)C [Compound 5766, (2S)-N-[(1S)-1-[(1-{[(1S)-1-{[(1S)-1-{[1-({1-[(2-{[(2S)-1-(dimethylamino)propan-2-yl]carbamoyl}ethyl)carbamoyl]-1-methylethyl}carbamoyl)-1-methylethyl]carbamoyl}-3-methylbutyl]carbamoyl}-3-methylbutyl]carbamoyl}-1-methylethyl)carbamoyl]-3-methylbutyl]-6-acetamido-2-{[(2S)-1-hexanoylpyrrolidin-2-yl]formamido}hexanamide] (Hexanoyl-PK(Ac)L[Aib]LL[Aib][Aib][βAla]-{NH((S)CH(Me)CH2NMe2)})
IC50 [1]: 752 nM | IC50 [2]: 3 nM | IC50 [3]: 3780 nM | IC50 at 70 h [4]: 4870 nM | IC50 (Plasmodium falciparum): 135 nM

CC[C@H](C)/C=C/C(=O)N1CCC[C@H]1C(=O)N[C@@H](C)C(=O)N[C@H](C(=O)NC(C)(C)C(=O)N[C@@H](CC(C)C)C(=O)N[C@@H](CC(C)C)C(=O)NC(C)(C)C(=O)NC(C)(C)C(=O)NCCC(=O)N[C@@H](C)CN(C)C)[C@H](O)C(C)C [Compound 5526, (2S,3R)-N-(1-{[(1S)-1-{[(1S)-1-{[1-({1-[(2-{[(2S)-1-(dimethylamino)propan-2-yl]carbamoyl}ethyl)carbamoyl]-1-methylethyl}carbamoyl)-1-methylethyl]carbamoyl}-3-methylbutyl]carbamoyl}-3-methylbutyl]carbamoyl}-1-methylethyl)-3-hydroxy-4-methyl-2-[(2S)-2-{[(2S)-1-[(2E,4S)-4-methylhex-2-enoyl]pyrrolidin-2-yl]formamido}propanamido]pentanamide] ({Hexenoyl(2E,4S-Me)}-PA[Leu(3R-OH)][Aib]LL[Aib][Aib][βAla]-{NH((S)CH(Me)CH2NMe2)})
IC50 [1]: 286 nM | IC50 [2]: 2.35 nM | IC50 [3]: 4500 nM | IC50 at 70 h [4]: 3640 nM | IC50 (Plasmodium falciparum): 83.8 nM

From patent EP3345917A1, “ANTIPROTOZOAL COMPOUNDS” (Bacoba AG, priority 2017, dated 2018)
